Measured values published in patent publication US11384120B2, “Peptide capable of binding to biomarker for inflammatory and metabolic diseases, and use thereof” (NIBEC CO., LTD., priority 2019, dated 2022).
Like-named read-outs stand apart in the source and are kept apart here.

Key:
IL-6 = IL-6 expression by ELISA in palmitic acid-treated HepG2 cells; assay type: cell-based; details: HepG2, peptide 200 μM 2 hours, then palmitic acid 200 μM 24 hours, medium, FIG. 4
Protocol: HepG2 cells were plated at a density of 70% on a 6-well plate. After 16 hours, the cells were starved using DMEM medium containing 0.5% FBS for 2 hours. The cells were treated with a medium containing each of the peptides of SEQ ID NOS: 1 to 6 at a concentration of 200 μM for 2 hours, and were further treated with palmitic acid at a concentration of 200 μM to induce an inflammatory response for 24 hours. Each medium was collected, and the level of expression of IL-6, an inflammatory cytokine, was detected with an ELISA kit (R&D, Minneapolis, Minn., USA).

RAW 264.7 cells [1] = test system: RAW 264.7 cells
Protocol: (§1) RAW 264.7 cells were seeded at a density of 2×10^4/well on a 6-well plate. After 24 hours, replacement was conducted with DMEM medium containing 0.5% FBS. The cells were treated with 50 μM of each of fluorescence (rhodamine)-labeled peptides of SEQ ID NOS: 1, 5 and 6. After 20 minutes, the cells were fixed and observed with a confocal microscope.

RAW 264.7 cells [2] = assay: cell permeability of rhodamine-labeled peptides by confocal microscopy; details: RAW 264.7, rhodamine-labeled peptide 50 μM, 20 minutes, FIG. 3
Protocol: as §1

Row | cell permeability (fluorescence in the cells) (RAW 264.7 cells [1]) | Sequence | expression level of IL-6 (IL-6) | cell permeability (fluorescence in the cells) (RAW 264.7 cells [2])
1 | excellent cell permeability | AESPLTNRGWNPGKCSTRGRKCCRRKK [SEQ ID NO: 6] | lowest IL-6 expression level | –
2 | – | GKCSTRGRKCCRRKK [SEQ ID NO: 5] | – | excellent cell permeability
